# In patent US20240307350A1, “5-METHOXY-N,N-DIMETHYLTRYPTAMINE (5-MEO-DMT) FOR TREATING DEPRESSION” (GH RESEARCH IRELAND LIMITED, priority 2019, published 2024):
# Like-named read-outs stand apart in the source and are kept apart here.
# Legend:
# [1] = Clinical trial in healthy volunteers: 5-MeO-DMT and bufotenine plasma levels; type: in vivo, human; conditions: human, plasma, inhaled, read-out: 5-MeO-DMT plasma levels, group median; for concentration at 1 h: 1 hour after administration; for concentration at 3 h: 3 hours after administration
# Method: A clinical trial was performed in which 5-MeO-DMT free base (purity not less than 99%) at different dose levels was administered via inhalation (as described in Example 1) in a single day to healthy volunteers who had prior experiences with the use of synthetic or naturally-occurring psychedelics. The trial was reviewed and approved by the relevant national competent authority and local medical ethics committee. The trial consisted of two parts: Part A, where single doses of 5-MeO-DMT dosage amounts of 2 mg, 6 mg, 12 mg and 18 mg were administered; and Part B, where an initial 5-MeO-DMT dosage amount of 6 mg was administered, and then, unless the participant had already experienced a peak psychedelic experience based on the PPEQ or the supervising physician had decided that further dose increases were inappropriate based on observed side effects, further subsequent dosage amounts of 12 mg and 18 mg were administered with about 3 hours in between each administration. Participants in Part A only received one dose and were not allowed to receive higher doses in later parts of Part A and were not allowed to participate in Part B. Participants were closely monitored for 3.5 hours after the last dose, with additional follow-up visits 1 day and 7 days after dosing. Various safety related measures (e.g., adverse event reporting, safety laboratory analyses, vital signs, ECG, CADSS, PVT, DSST, Prospective Memory Task (PMT)) as well as measures of the intensity of the psychedelic effects (MEQ30, ASC, PPEQ, subjective description of the psychedelic experience) were recorded. Pharmacokinetic analysis of 5-MeO-DMT and bufotenine plasma levels was performed at 1 hour and 3 hours after drug administration in Part A, and at 3 hours after drug administration in Part B.
# [2] = system: patients with treatment-resistant major depressive disorder; assay: Clinical trial of inhaled 5-MeO-DMT in treatment-resistant major depressive disorder: safety and tolerability; type: in vivo, human; conditions: for Reported adverse events: 12 mg inhaled
# Method: A clinical trial was performed in which 5-MeO-DMT free base (purity not less than 99%) was administered to patients with treatment-resistant major depressive disorder (TRD). The objectives of the study were to assess the safety and tolerability, the dose-related psychedelic effects and the effects on various measures of depression of single-day dosing of 5-MeO-DMT. The trial was reviewed and approved by the relevant national competent authority and local medical ethics committee. Patients recruited into the trial had to meet the Diagnostic and Statistical Manual of Mental Disorders-Fifth Edition (DSM-5) diagnostic criteria for single-episode or recurrent major depressive disorder and had to be treatment-resistant, both aspects as evaluated by a psychiatrist or registered psychologist. Patients who were using any psychoactive medication or substance (such as anti-depressive medication) had to discontinue such medication or substance and had to observe a wash-out period before the 5-MeO-DMT administration. On the administration day, a single dose of 12 mg 5-MeO-DMT was administered to the patients via a single inhalation as described in Example 1A. Patients were closely monitored for 3.5 hours after administration, with additional follow-up visits 1 day and 7 days after dosing. Various safety related measures (e.g., adverse event reporting, safety laboratory analyses, vital signs, electrocardiogram (ECG), Clinician Administered Dissociative States Scale (CADSS), Psychomotor Vigilance Test (PVT), Digit Symbol Substitution Test (DSST)), measures of the intensity of the psychedelic effects (e.g., Peak Psychedelic Experience Questionnaire (PPEQ), Altered States of Consciousness (ASC) Questionnaire, Mystical Experience Questionnaire (MEQ30), subjective description of the psychedelic experience), measures of depression severity (Montgomery-Åsberg Depression Rating Scale (MADRS), Patient's Global Impression of Severity scale (PGI-S), Patient's Global Impression of Improvement scale (PGI-I)), and additional psychological measures (e.g., Columbia-Suicide Severity Rating Scale (C-SSRS), Brief Psychiatric Rating Scale (BPRS)) were recorded at different time points. Psychological support via a psychologist and/or psychiatrist was available to the patients throughout the study, but no specific psychotherapy was applied, and no additional psychoactive medication was provided.
# Two patients with major depressive disorder diagnosed by a psychiatrist according to DSM-5 diagnostic criteria were recruited into the study (Example 2, Table 1). The patients were considered treatment-resistant because they had not shown adequate improvement to at least two adequate courses of pharmacological therapy in the current episode of depression.
smiles,measurement,setting,value
"COc1ccc2[nH]cc(CCN(C)C)c2c1 [5-MeO-DMT, 5-methoxy-N,N-dimethyltryptamine]",concentration at 1 h,"[1]; 2 mg, Part A 2 mg (n = 4), range 0.03-0.69",0.38 ng/mL
same,concentration at 3 h,"[1]; 2 mg, Part A 2 mg (n = 4), range 0.01-0.04",0.03 ng/mL
same,concentration at 1 h,"[1]; 6 mg, Part A 6 mg (n = 6), range 0.09-0.64",0.33 ng/mL
same,concentration at 3 h,"[1]; 6 mg, Part A 6 mg (n = 6), range 0.00-0.06",0.02 ng/mL
same,concentration at 3 h,"[1]; 6 mg, Part B 6 mg (n = 4), range 0.00-0.09",0.01 ng/mL
same,concentration at 1 h,"[1]; 12 mg, Part A 12 mg (n = 4), range 0.13-0.29",0.19 ng/mL
same,concentration at 3 h,"[1]; 12 mg, Part A 12 mg (n = 4), range 0.01-0.01",0.01 ng/mL
same,concentration at 1 h,"[1]; 18 mg, Part A 18 mg (n = 4), range 0.15-2.42",0.65 ng/mL
same,concentration at 3 h,"[1]; 18 mg, Part A 18 mg (n = 4), range 0.01-0.24",0.04 ng/mL
same,concentration at 3 h,"[1]; Part B 6 mg, 12 mg (n = 3), range 0.01-0.05",0.03 ng/mL
same,concentration at 3 h,"[1]; Part B 6 mg, 12 mg, 18 mg (n = 1), range 0.05-0.05",0.05 ng/mL
same,"ECG, safety laboratory analyses, CADSS and cognitive tests (PVT, DSST)","[2]; ECG at 3 hours, laboratory at 3 hours and 7 days, CADSS at 3 hours, 1 day and 7 days, PVT, DSST at 1 day and 7 days",unremarkable
same,Reported adverse events,"[2]; Patient 1, Administration day, mild, resolved spontaneously",Dizziness
same,Reported adverse events,"[2]; Patient 1, Day 1, mild, resolved spontaneously","Headache, Flashback"
same,Reported adverse events,"[2]; Patient 1, Day 7, mild, resolved spontaneously",Headache
same,Reported adverse events,"[2]; Patient 2, Administration day",None reported
same,Reported adverse events,"[2]; Patient 2, Day 1, mild, resolved spontaneously",Headache
same,Reported adverse events,"[2]; Patient 2, Day 7",None reported
same,changes in vital parameters,"[2]; shortly after administration of 12 mg, both patients","temporary, not clinically relevant increase in heart rate and blood pressure"
same,tolerability of the inhalation procedure,"[2]; single dose of 12 mg via inhalation, both patients",well tolerated with no inhalation-related adverse events
